Measured values taken from ChEMBL document CHEMBL1201862, “PubChem BioAssay data set” (2004).
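Compound exposure: 48 hours, 5 concentrations, 96-well plates. GI50 marks 50% less growth.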 Calls of active or inactive are those of the source. Cut-off read from the data, not from the text of the source: active = GI50 up to about 1.1 µM and inactive = higher.

Experiments:
Experiment in all cases: NCI-60 cell line screen, 48 h
[1] = test system: HCT-116
[2] = test system: NCI-H522
[3] = test system: COLO 205
[4] = test system: HOP-62
[5] = test system: OVCAR-5
[6] = test system: SW-620
[7] = test system: MOLT-4
[8] = test system: 786-0
[9] = test system: SK-MEL-2
[10] = test system: ACHN
[11] = test system: SK-MEL-28
[12] = test system: A549
[13] = test system: CCRF-CEM
[14] = test system: UACC-257
[15] = test system: RXF 393
[16] = test system: HCC 2998
[17] = test system: LOX IMVI
[18] = test system: CAKI-1
[19] = test system: TK-10

Measured: GI50

Cc1ccc(NC(=O)CC(=O)N2N=C(N(CCC#N)c3cccc(C)c3)CC2c2ccccc2)cc1 (centres undefined)
inactive: [1] > 100 µM | [2] > 100 µM | [3] > 100 µM | [4] > 100 µM | [5] > 100 µM | [6] > 100 µM | [7] > 100 µM | [8] > 100 µM | [9] > 100 µM | [10] > 100 µM | [11] > 100 µM | [12] > 100 µM | [13] > 100 µM | [14] > 100 µM | [15] > 100 µM | [16] > 100 µM

c1cnc2c(c1)-n1cccc1C1(CCSC1)NN2 (centres undefined)
inactive: [1] > 100 µM | [2] > 100 µM | [17] > 100 µM | [3] > 100 µM | [4] > 100 µM | [5] > 100 µM | [6] > 100 µM | [7] > 100 µM | [18] > 100 µM | [8] > 100 µM | [9] > 100 µM | [19] > 100 µM | [10] > 100 µM | [11] > 100 µM | [12] > 100 µM | [13] > 100 µM | [14] > 100 µM | [16] > 100 µM

CC(C)N1C(C)[C@@H](c2ccccc2)O[P@@]1(=O)CC1=CCCCC1 (some centres undefined)
inactive: [1] 90.2 µM | [2] > 100 µM | [17] > 100 µM | [3] > 100 µM | [4] > 100 µM | [5] > 100 µM | [6] > 100 µM | [7] 80.7 µM | [8] > 100 µM | [9] > 100 µM | [19] > 100 µM | [10] > 100 µM | [11] > 100 µM | [12] > 100 µM | [13] 48.5 µM | [14] > 100 µM | [15] 68.7 µM | [16] > 100 µM

COC(=O)C(Cc1nc2ccccc2nc1O)C(=O)C(=O)Nc1ccc(OC)cc1[N+](=O)[O-] (centres undefined)
inactive: [1] > 100 µM | [2] > 100 µM | [17] > 100 µM | [3] > 100 µM | [4] > 100 µM | [5] > 100 µM | [6] > 100 µM | [7] > 100 µM | [18] > 100 µM | [8] > 100 µM | [9] > 100 µM | [19] > 100 µM | [10] > 100 µM | [11] > 100 µM | [12] > 100 µM | [13] > 100 µM | [14] > 100 µM | [16] > 100 µM

CCOC(=O)C1(Br)C(c2ccccc2)NC(=O)N(C2OC(COC(=O)c3ccccc3)C(OC(=O)c3ccccc3)C2OC(=O)c2ccccc2)C1(C)Br (centres undefined)
inactive: [1] 18.2 µM | [2] 10.2 µM | [17] 21.8 µM | [3] 24.4 µM | [4] 38.9 µM | [6] 14.4 µM | [7] 18.2 µM | [18] 35.6 µM | [8] 12.9 µM | [9] 31.5 µM | [19] 39.4 µM | [10] 30.8 µM | [11] > 47 µM | [12] 12.9 µM | [13] 3.15 µM | [14] 18.6 µM | [15] 14.5 µM | [16] 91 µM

Cc1cc2c(cc1CO)N1Cc3cc(C)c(CO)cc3N(C2)C1
inactive: [1] > 100 µM | [2] > 100 µM | [17] > 100 µM | [3] > 100 µM | [4] > 100 µM | [6] > 100 µM | [7] > 100 µM | [8] > 100 µM | [19] > 100 µM | [11] > 100 µM | [12] > 100 µM | [13] > 100 µM | [15] > 100 µM | [16] > 100 µM

COc1cc2c(cc1OC)C(CC1=C(c3ccccc3)CN3CCc4cc(OC)c(OC)cc4C3C1)NCC2 (centres undefined)
inactive: [17] 15.8 µM | [3] 15.2 µM | [5] 18.5 µM | [6] 17.7 µM | [7] 9.91 µM | [18] 25.7 µM | [8] 15.7 µM | [9] 20.5 µM | [19] 16.6 µM | [10] 24.3 µM | [11] 14.5 µM | [12] 17 µM | [13] 14.6 µM | [14] 16.2 µM | [15] 2.66 µM | [16] 10.6 µM

Cc1ccc(NC(=O)C(=O)C(C#N)c2nc(-c3ccc(-c4ccccc4)cc3)cs2)c(C)c1 (centres undefined)
inactive: [1] > 100 µM | [17] > 100 µM | [3] > 100 µM | [4] > 100 µM | [5] > 100 µM | [6] 17.4 µM | [7] > 100 µM | [18] > 100 µM | [8] > 100 µM | [9] > 100 µM | [19] > 100 µM | [10] > 100 µM | [11] > 100 µM | [12] > 100 µM | [14] 58.7 µM | [15] > 100 µM | [16] > 100 µM

CC(C)OP(=O)(OC(C)C)/C(=N/Nc1ccc([N+](=O)[O-])cc1)NCCN/C(=N\Nc1ccc([N+](=O)[O-])cc1)P(=O)(OC(C)C)OC(C)C
inactive: [1] 3.48 µM | [2] 3.22 µM | [17] 8.89 µM | [3] 3.93 µM | [4] 6.01 µM | [5] 31.6 µM | [6] 3.76 µM | [7] 3.31 µM | [18] 3.58 µM | [8] 9.86 µM | [9] 4.92 µM | [19] 6.03 µM | [10] 3.56 µM | [11] 31.3 µM | [12] 3.72 µM | [13] 2.84 µM | [14] 6.61 µM | [16] 5.4 µM

CCOc1ccc2nc(NC(=O)C(=O)C(c3cnc4ccccc4n3)[N+](=O)[O-])sc2c1 (centres undefined)
inactive: [1] > 100 µM | [2] 45.4 µM | [17] 61 µM | [4] > 100 µM | [5] > 100 µM | [7] 53.1 µM | [18] > 100 µM | [8] > 100 µM | [9] > 100 µM | [19] > 100 µM | [10] 43.8 µM | [12] > 100 µM | [13] 44.8 µM | [14] > 100 µM | [15] > 100 µM | [16] > 100 µM

OCC1CC2C=CCC(C2)C1 (centres undefined)
inactive: [1] > 100 µM | [2] > 100 µM | [17] > 100 µM | [3] > 100 µM | [4] > 100 µM | [5] > 100 µM | [6] > 100 µM | [7] > 100 µM | [18] > 100 µM | [8] > 100 µM | [9] > 100 µM | [19] > 100 µM | [10] > 100 µM | [11] > 100 µM | [12] > 100 µM | [13] > 100 µM | [14] > 100 µM | [15] > 100 µM

NC1CC(n2ccc(=O)[nH]c2=O)OC1C(O)CO (centres undefined)
inactive: [1] > 100 µM | [2] > 100 µM | [17] > 100 µM | [3] > 100 µM | [4] > 100 µM | [5] > 100 µM | [6] > 100 µM | [7] > 100 µM | [8] > 100 µM | [9] > 100 µM | [19] > 100 µM | [10] > 100 µM | [11] > 100 µM | [12] > 100 µM | [13] > 100 µM | [14] > 100 µM | [15] > 100 µM | [16] > 100 µM

COc1nc(NC2OCC(O)C(O)C2O)c(NC2OCC(O)C(O)C2O)c(=O)n1C (centres undefined)
inactive: [1] > 100 µM | [2] > 100 µM | [17] > 100 µM | [3] > 100 µM | [4] > 100 µM | [6] > 100 µM | [7] > 100 µM | [8] > 100 µM | [9] > 100 µM | [19] > 100 µM | [10] > 100 µM | [11] > 100 µM | [12] > 100 µM | [13] > 100 µM | [14] > 100 µM | [15] > 100 µM | [16] > 100 µM

NC(CCC(=O)Nc1ccc(O)cc1)C(=O)O (centres undefined)
inactive: [1] > 100 µM | [2] > 100 µM | [17] > 100 µM | [3] > 100 µM | [4] > 100 µM | [5] > 100 µM | [6] > 100 µM | [7] > 100 µM | [18] > 100 µM | [8] > 100 µM | [9] > 100 µM | [19] > 100 µM | [10] > 100 µM | [11] > 100 µM | [12] > 100 µM | [13] > 100 µM | [14] > 100 µM | [15] > 100 µM

NCC(=O)OCN1C(=O)C2C3C=CC(C2C1=O)C1C2C(=O)N(COC(=O)CN)C(=O)C2C31 (centres undefined)
inactive: [1] 16.9 µM | [2] 12.5 µM | [17] 20 µM | [3] 21.4 µM | [4] > 100 µM | [6] 22.4 µM | [7] 28.9 µM | [18] 53.5 µM | [8] 22.8 µM | [9] 19.4 µM | [19] 31.3 µM | [10] 24.5 µM | [11] 19.1 µM | [12] 30.1 µM | [13] 22.9 µM | [14] 36.3 µM | [15] 20.6 µM

COc1ccc(N/N=C(\CCN(C)C)c2ccccc2)cc1
inactive: [1] 3.56 µM | [2] 10.7 µM | [17] 2.07 µM | [3] 2.78 µM | [4] 2.1 µM | [5] 9.57 µM | [6] 2.86 µM | [7] 3.39 µM | [8] 3.4 µM | [9] 4.49 µM | [19] 2.23 µM | [10] 1.36 µM | [11] 2.69 µM | [12] 1.67 µM | [13] 1.41 µM | [14] 3.78 µM | [15] 15.7 µM
